Results reported in article PMC9430770 (Microbiology Spectrum, 2022).

Tests used:
[1] = test system: Candida albicans 103; assay: Checkerboard microdilution assay with fluconazole; assay type: cell-based
Source text: Ta b l e S3. Interaction of fluconazole ( FLC) and BE probes against isolates of Candida albicans
Compounds Molecular structure Individual action Interaction MIC(μg/ mL ) FICI Mode of
MIC (μg /mL) FLC Compounds interaction

[2] = test system: C. albicans SN152; assay: Galleria mellonella infection model, SN152 strain; assay type: in vivo, Candida albicans; conditions: G. mellonella, 10 mg/kg
Procedure: To assess whether Eno1 is a therapeutic target of BE, we constructed a homozygous deletion strain for the ENO1 gene (eno1/eno1). We then investigated the difference in the antifungal efficacy of BE on the infections caused by the parent strain SN152 and the eno1/eno1 strain in the Galleria mellonella infection model. We divided the G. mellonella into 5 groups, with 10 larvae in each group. All 10 larvae died after a 24-h infection with the SN152 strain, while only 3 larvae died after 24 h when infected with the eno1/eno1 strain; the remaining larvae died within 7 days. Compared with the group infected with the parent strain, the survival time of the group infected with the eno1/eno1 strain was longer (P < 0.01) (Fig. 4A). […]
FIG 4 Eno1 acts as a therapeutic target of BE. […] Each curve represents a group of 10 larvae (n =10) monitored daily for survival for up to 10 days after infection. […]
Virulence testing of C. albicans was done in Galleria mellonella as described previously ([56]). […] After growth in YPD media overnight at 30°C and 200 rpm, C. albicans SN152 cells or eno1/eno1 mutant cells were washed with PBS 3 times and diluted to the desired concentration (1 × 10^7 cells/mL) determined by counting with a hemacytometer. […] The death of G. mellonella was assessed daily and analyzed statistically by the Kaplan-Meier method (log-rank test).

For O=c1cc(-c2ccccc2)oc2cc(O)c(O)c(O)c12 [BE, Baicalein], the “Interaction MIC FLC” value ([1]; MIC of FLC in combination with the compound) was 1 µg/mL, the “Interaction MIC Compounds” value ([1]; MIC of the compound in combination with FLC) was 1 µg/mL and the FICI ([1]; combination with FLC) was 0.039. For the same compound, the Mode of interaction ([1]; combination with FLC, FLC-resistant C. albicans) was “Synergism”, the “Individual action MIC” value ([1]; compound alone) was 32 µg/mL and the “survival rate of larvae extended versus infected group without drug treatment” value [2] was 30%.
